Results: publication PMC11350809, “Targeting N-Acetylglucosaminidase in Staphylococcus aureus with Iminosugar Inhibitors” (Antibiotics, 2024)
Converted amounts (≈) assume the structure as drawn. “Also recorded” adds a separate entry of the source. Where two headings read alike, the source gives them in different places.

What was measured:
[1] = molecular target: β-galactocerebrosidase (GALC); conditions: cited from earlier work
[2] = molecular target: human recombinant β-glucocerebrosidase (GBA); conditions: cited from earlier work
naringinase (Nar) = conditions: cited from earlier work
[3] = molecular target: β-Glucosidase (from almond); conditions: cited from earlier work
autolysin E (AtlE) = autolysin E (AtlE) (Staphylococcus aureus, UniProt A0A0H3JT72); experiment: Surface plasmon resonance (SPR) binding to immobilized AtlE; conditions: for maximal SPR response compared with the maximal theoretical response: theoretical response calculated from molecular masses of AtlE and compound, surfactant P20 in running buffer
Chain of autolysin E (AtlE) (A0A0H3JT72 entry or part of it): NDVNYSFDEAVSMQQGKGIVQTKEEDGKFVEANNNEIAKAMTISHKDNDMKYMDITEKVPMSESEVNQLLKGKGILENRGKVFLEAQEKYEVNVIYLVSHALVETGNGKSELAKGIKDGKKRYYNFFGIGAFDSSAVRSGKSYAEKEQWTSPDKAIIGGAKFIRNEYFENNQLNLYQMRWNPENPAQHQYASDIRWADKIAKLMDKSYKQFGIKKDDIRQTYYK
Protocol: The potential inhibitory effect of compounds that bind to AtlE was measured using surface plasmon resonance (SPR). The protein was covalently attached to the surface of the CM5 sensor chip (5200 response units (RU)). The compounds were prepared as 20 mM stock solutions in DMSO and diluted with HEPES running buffer with 2.5% DMSO. Some compounds were less soluble, which was also predicted by the in silico programs and QSAR models for aqueous solubility (see Supplementary Table S3).
The binding of iminosugars was recorded and analyzed using the Biacore T200 3.2.1 software v3.2.1 Evaluation (for results, see Table 1). […] Therefore, for further testing of AtlE binding, the iminosugar derivatives with a lipophilic tail were chosen (1,5-dideoxy-1,5-imino-D-xylitol derivatives (DIX)).
Three compounds, 1, 3 and 8, were identified as AtlE binders. Two of them, 1 and 3, were titrated at eight different concentrations, while compound 8 was titrated firstly at six different concentrations (Figure 4a) and secondly at seven concentrations (Figure S2). The equilibrium dissociation constant KD was estimated using the 1:1 steady-state affinity binding model, with the graphs showing the response units as a function of inhibitor concentration (Figure 4b). […] The maximal theoretical response was calculated using the molecular masses of AtlE and the compounds, respectively. […] Due to the amphiphilicity of the compounds with a hydrophilic sugar unit in the head and a hydrophobic fatty acid residue in the tail, we can assume that both compounds can form oligomeric micelles. To prevent the formation of micelles, we added a surfactant P20 to the running buffer, but the maximum theoretical binding to AtlE was not reached for compounds 1 and 3. This brings into question the true nature of their binding and should be verified by another independent method.
Figure 4 (a) Representative SPR sensorgrams (response curves) and (b) representative saturation curves with evaluated KD for compounds 1, 3 and 8 at different concentrations. SPR analysis of compound 1, 3 and 8 interactions with the immobilized AtlE. Compounds were injected across immobilized AtlE in serial dilutions for 60 s at a rate of […], and the dissociation was followed for 50 s. Sensorgrams are shown along with the apparent equilibrium dissociation constant (KD) determined from the response curves as a function of the compound concentration injected across AtlE. KD values are the mean ± standard deviation of three titrations. The data were fitted to the steady-state affinity binding model.
Surface plasmon resonance (SPR) experiments were performed at 25 °C using a Biacore T200 (Biacore, GE Healthcare, Uppsala, Sweden) instrument with Series S sensor chip CM5 (GE Healthcare). […]

[4] = molecular target: α-Galactosidase (from green coffee beans); conditions: cited from earlier work
[5] = molecular target: β-Galactosidase (from bovine liver); conditions: cited from earlier work
S. aureus (ATCC 29213) = experiment: Minimal inhibitory concentration, broth microdilution; type: cell-based, Staphylococcus aureus; conditions: for MIC: Staphylococcus aureus, ATCC29213, broth microdilution, 20 h at 35 °C, read-out: MIC S. aureus ATCC29213
Protocol: (§1) The minimal inhibitory concentrations (MICs) were determined against the bacterial strains S. aureus (ATCC 29213) and E. coli (ATCC 25922), and the results are presented in Table S6.
(§2) Antimicrobial testing was carried out by the broth microdilution method in a 96-well plate format following the CLSI guidelines and European Committee for Antimicrobial Susceptibility Testing (EUCAST) recommendations. Bacterial suspension of a specific bacterial strain equivalent to 0.5 McFarland turbidity standard was diluted with cation-adjusted Mueller Hinton broth to obtain a final inoculum of 10^5 CFU/mL. Compounds dissolved in 20% DMSO and inoculum were mixed together and incubated for 20 h at 35 °C. After incubation, the minimal inhibitory concentration (MIC) values were determined by visual inspection as the lowest dilution of compounds showing no turbidity. The MICs were determined against S. aureus (ATCC 29213) and E. coli (ATCC 25922) bacterial strains. Tetracycline was used as a positive control on every assay plate, showing MICs of 0.5 µg/mL and 1 µg/mL for S. aureus and E. coli, respectively.

[6] = molecular target: α-Glucosidase (from baker's yeast); conditions: cited from earlier work
E. coli (ATCC 25922) = experiment: Minimal inhibitory concentration, broth microdilution (negative control strain); type: cell-based; conditions: Escherichia coli, ATCC25922; broth microdilution, 20 h at 35 °C; read-out: MIC E. coli ATCC25922
Protocol: as §1, §2

[7] = pH 5.2, footnote **, read-out: IC50 GBA pH 5.2
[8] = pH 7.0, footnote **, read-out: IC50 GBA pH 7.0
[9] = pH 5.0, p-nitrophenyl-b-d-glucopyranoside, footnote **
[10] = pH 6.8, p-nitrophenyl-a-d-galactopyranoside, footnote **
[11] = pH 7.2, p-nitrophenyl-a-d-glucopyranoside, footnote **

SMILES	IC50 ([1]; footnote **)	IC50 human recombinant β-glucocerebrosidase ([2]; in words)	IC50 [2, 7]	IC50 [2, 8]	IC50 (naringinase (Nar); footnote **)	IC50 [3, 9]	maximal SPR response compared with the maximal theoretical response (autolysin E (AtlE))	IC50 [4, 10]	IC50 ([5]; footnote **)	MIC (S. aureus (ATCC 29213))	IC50 [6, 11]	MIC (E. coli (ATCC 25922))	other results
CCCCCCCCCCNC(=N)N1CC(O)C(O)C(O)C1 (stereo not drawn) [Compound 3]	> 10 µM	low nanomolar range	0.09 ± 0.01 µM	0.03 ± 0.01 µM	41.5 ± 0.2 µM	26 ± 0.9 µM	higher maximal response than expected; also recorded: higher than expected maximum response	> 100 µM	2.7 ± 0.2 µM	500 µM (≈ 158 µg/mL)	> 100 µM	> 500 µM	–
CCCCCCCCCCCCCCN=C1OCC2C(O)C(O)C(O)CN12 (stereo not drawn) [Compound 1]	–	low nanomolar range	–	–	–	–	higher maximal response than expected; also recorded: higher than expected maximum response	–	–	8 µM (≈ 3.08 µg/mL)	–	125 µM (≈ 48.1 µg/mL)	IC50 ([1]; footnote *): > 10 µM; IC50 ([2]; pH 5.2, footnote *, read-out: IC50 GBA pH 5.2): 0.02 ± 0.001 µM; IC50 ([2]; pH 7.0, footnote *, read-out: IC50 GBA pH 7.0): 0.001 ± 0.001 µM; IC50 (naringinase (Nar); footnote *): 0.2 ± 0.01 µM; IC50 ([3]; pH 5.0, p-nitrophenyl-β-D-glucopyranoside, footnote *): 0.7 ± 0.03 µM; IC50 ([4]; pH 6.8, p-nitrophenyl-α-D-galactopyranoside, footnote *): > 100 µM; IC50 ([5]; footnote *): 0.1 ± 0.03 µM; antibacterial activity against S. aureus ATCC 29213 (S. aureus (ATCC 29213); in words): modest antibacterial activities; IC50 ([6]; pH 7.2, p-nitrophenyl-α-D-glucopyranoside, footnote *): > 100 µM
CCCCCCCCCCNC(=O)N1CC(O)C(O)C(O)C1 (stereo not drawn) [Compound 8]	> 10 µM	–	> 10 µM	> 10 µM	> 100 µM	> 100 µM	achieved the expected maximal theoretical response; also recorded: expected maximum theoretical response was not exceeded	> 100 µM	10.4 ± 0.9 µM	> 500 µM	> 100 µM	> 500 µM	inhibitor of β-glucocerebrosidase ([2]; in words, previous studies): not as an inhibitor of β-glucocerebrosidase; binding of human recombinant β-glucocerebrosidase ([2]; in words): no binding of this enzyme was observed
OC[C@H]1NC[C@H](O)[C@@H](O)[C@@H]1O [1-deoxynojirimycin, reference compound]	–	–	–	–	–	–	–	–	–	–	–	–	binding of AtlE (SPR) (autolysin E (AtlE); tested at 100 µM and 1 mM): no binding of AtlE; also recorded: did not inhibit AtlE
